Key:
[1] = tested on: poly dAdT-poly dAdT (AT-DNA, p(dAdT)2) (DNA, polymer) AT; test: UV thermal denaturation at 260 nm; conditions: Na+ (sodium cacodylate, I = 50 mM); pH 7.0; r = [compound]/[polynucleotide] = 0.2; error ± 0.5 °C; per base
AU-RNA (poly A-poly U) = test: Fluorimetric titration with AU-RNA, Scatchard equation; type: binding; conditions: pH 7, sodium cacodylate buffer, I = 0.05 M
Description: (§1) Experiments were conducted in an aqueous buffer solution (pH = 7.0 or pH= 5.0, I = 0.05 M, sodium cacodylate buffer). For the UV-Vis spectra were used Varian Cary 100 Bio spectrometer, for fluorescence spectra we used the Varian Cary Eclipse fluorimeter and for CD spectra we used the JASCO J815 spectropolarimeter, all conducted at 25.0 °C using appropriate quartz cuvettes (path length: 1 cm).
(§2) Polynucleotides were purchased as noted: poly dAdT-poly dAdT, poly dGdC-poly dGdC, poly A-poly U (ds-RNA), (Sigma-Aldrich, Schnelldorf, Germany), calf thymus (ct)-DNA (Sigma-Aldrich, Schnelldorf, Germany) and dissolved in sodium cacodylate buffer, I = 0.05 M, pH = 7.0. The ct-DNA was sonicated and filtered through a 0.45 µm filter to obtain mostly short (ca. 100 base pairs) rod-like B-helical DNA fragments. The concentration of DNA or RNA was determined spectroscopically as the c(nucleobase) using producer-provided molar extinction coefficients.
(§3) Fortunately, strong emission from the compounds studied allowed fluorimetric titrations to be performed at much lower concentrations of the dyes (c = 5 × 10^−8 M), thus preventing precipitation of non-methylated 1 or 2, and allowing for the collection of numerous data points at excess of DNA/RNA binding sites over c(dye). […]

pUC19 plasmid DNA = test: Plasmid electrophoresis, photoinduced DNA nuclease activity; type: biochemical; conditions: 100 μM compound; for Photo-induced nuclease activity on plasmid DNA: 1 μg pUC19, UV light 15 and 45 s; for Effect on plasmid DNA forms without UV irradiation: 1 μg pUC19, non-irradiated
Description: Plasmid electrophoresis. For assessing the photoinduced DNA nuclease activity of compounds 2M, 1 and 1M, 1 μg of pUC19 plasmid DNA (2686 pb) was incubated with a 100 μM solution of the respective compound, and exposed to UV light (using a xenon arc lamp, Oriel, Stratford, CT, USA) for 15 and 45 s. After the treatment plasmid samples were run on 0.5% agarose gel, and stained with Midori Green DNA binding dye (Nippon Genetics, Düren, Germany). Non-irradiated samples containing compounds and plasmid DNA served as a control for assessing the photoinduced nuclease activity of the compound. Plasmid without the compound was irradiated with UV light under the same conditions to determine whether UV light itself induces changes in plasmid DNA forms (linear and supercoiled form). After gel electrophoresis, plasmid DNA forms were visualised on a UVITEC Imager (Cleaver Scientific, Rugby, UK).

A549 cells = test: Confocal time-lapse imaging under irradiation; type: cell-based, human; conditions: A549, 1 µM (Figure 9), irradiated at 350 nm
Description: Cells were left in the cell incubator for 90 min to allow the compound to enter the cells. After incubation, the medium was replaced with 500 μL of fresh medium. […]

poly dAdT-poly dAdT = test: Thermal denaturation of poly dAdT-poly dAdT (∆Tm); type: binding; conditions: I = 50 mM
Description: as §1, §2
(§4) Thermal denaturation of ds-DNA, ds-RNA and their complexes with studied compounds was performed by monitoring the absorption change at 260 nm as a function of temperature. Tm values are the midpoints of the transition curves determined from the maximum of the first derivative and checked graphically by the tangent method. The ∆Tm values were calculated by subtracting the Tm of the free nucleic acid from the Tm of the complex. Every ∆Tm value here reported was the average of at least two measurements. The error in ∆Tm is ± 0.5 °C.

[2] = molecular target: AT-DNA (poly dAdT-poly dAdT); test: Fluorimetric titration with AT-DNA, Scatchard equation; type: binding; conditions: pH 7, sodium cacodylate buffer, I = 0.05 M
Description: as §1, §2, §3

[3] = tested on: poly A-poly U (AU-RNA, pApU) (RNA, polymer) A/U; test: UV thermal denaturation at 260 nm; conditions: Na+ (sodium cacodylate, I = 50 mM); pH 7.0; r = [compound]/[polynucleotide] = 0.2; error ± 0.5 °C; per base
[4] = tested on: poly dAdT-poly dAdT (AT-DNA, p(dAdT)2) (DNA, polymer) AT; test: fluorimetric titration, Scatchard; conditions: Na+ (sodium cacodylate, I = 0.05 M); pH 7.0, 25 °C; Scatchard n fixed at 0.2 or 0.3; per base
ct-DNA = test: Thermal denaturation of ct-DNA (∆Tm); type: binding, calf; conditions: I = 50 mM
Description: as §1, §2, §4

[5] = r = 0.2, pH 7.0, sodium cacodylate buffer
[6] = r = 0.3, pH 7.0, sodium cacodylate buffer

Row | SMILES | ∆Tm [1] [°C] | Binding constant logKs AU-RNA (AU-RNA (poly A-poly U)) | Photo-induced nuclease activity on plasmid DNA (pUC19 plasmid DNA) | Effect on plasmid DNA forms without UV irradiation (pUC19 plasmid DNA) | Cell morphology under continuous irradiation (A549 cells) | ∆Tm Poly dAdT-Poly dAdT (poly dAdT-poly dAdT; [5]) [°C] | ∆Tm Poly dAdT-Poly dAdT (poly dAdT-poly dAdT; [6]) [°C] | Binding constant logKs AT-DNA [2] | ∆Tm [3] [°C] | logKs [4] | ∆Tm ct-DNA (ct-DNA; [5]) | ∆Tm ct-DNA (ct-DNA; [6]) | ∆Tm ct-DNA (ct-DNA; r = 0.1, pH 5.0, sodium cacodylate buffer) [°C] | ∆Tm ct-DNA (ct-DNA; r = 0.3, pH 5.0, sodium cacodylate buffer) [°C]
1 | C[n+]1ccc(-c2cc3ccc4cccc5ccc(c2)c3c45)cc1 [1M, 2-para-N-methylpyridinium pyrene] | 8 | 5.8 | strong photo-induced nuclease activity | nicking of the plasmid DNA | swelling and even blebbing morphology | 8 | 9 | 5.9 | 3 | 5.9 | – | – | – | –
2 | C[n+]1ccc(-c2cc3ccc4cc(-c5cc[n+](C)cc5)cc5ccc(c2)c3c45)cc1 [2M] | 31 | 8.5 | strong photo-induced nuclease activity | unwinding of supercoiled DNA even without UV irradiation | swelling and even blebbing morphology | 31 | 33 | 7.1 | 4 | 7.1 | ^d >16 °C | ^d >16 °C | – | –
3 | c1cc2ccc3cc(-c4ccncc4)cc4ccc(c1)c2c34 [compound 1] | – | – | did not show any influence on DNA plasmid forms | – | – | – | – | – | – | – | – | – | 0 | 2

Source: article PMC9696974 (Pharmaceutics, 2022)
